In patent US8889671B2, “Compounds and methods for treating bacterial infections” (AstraZeneca AB, priority 2013, dated 2014):
Values after ≈ are worked out from the molar mass of the structure shown.

What was measured:
Escherichia coli [1] = assay: Susceptibility testing (MIC) Assay 2, broth microdilution; assay type: cell-based; conditions: K12, read-out: Eco MIC
Haemophilus influenzae = assay: as above; assay type: cell-based; conditions: ATCC51907, Haemophilus influenzae, ATCC 51907, in vivo strain, read-out: Hin MIC
Pseudomonas aeruginosa [2] = assay: as above; assay type: cell-based; conditions: PAO1, read-out: Pae MIC
Burkholderia cepacia = assay: In vitro antibacterial activity of Example 5 (MIC); assay type: cell-based
Citrobacter freundii = assay: In vitro antibacterial activity of Example 5 (MIC); assay type: cell-based
Citrobacter koseri = assay: In vitro antibacterial activity of Example 5 (MIC); assay type: cell-based
Enterobacter aerogenes = assay: In vitro antibacterial activity of Example 5 (MIC); assay type: cell-based; conditions: Klebsiella aerogenes
Escherichia coli [3] = assay: In vitro antibacterial activity of Example 5 (MIC); assay type: cell-based
Klebsiella oxytoca = assay: In vitro antibacterial activity of Example 5 (MIC); assay type: cell-based
Klebsiella pneumoniae = assay: In vitro antibacterial activity of Example 5 (MIC); assay type: cell-based
Proteus mirabilis = assay: In vitro antibacterial activity of Example 5 (MIC); assay type: cell-based
Pseudomonas aeruginosa [4] = assay: In vitro antibacterial activity of Example 5 (MIC); assay type: cell-based
Staphylococcus aureus [5] = assay: In vitro antibacterial activity of Example 5 (MIC); assay type: cell-based
[6] = test system: Staphylococcus epidermidis; assay: In vitro antibacterial activity of Example 5 (MIC); assay type: cell-based
[7] = test system: Staphylococcus lugdunensis; assay: In vitro antibacterial activity of Example 5 (MIC); assay type: cell-based
[8] = test system: Staphylococcus saprophyticus; assay: In vitro antibacterial activity of Example 5 (MIC); assay type: cell-based
Streptococcus agalactiae = assay: In vitro antibacterial activity of Example 5 (MIC); assay type: cell-based
[9] = test system: Streptococcus constellatus; assay: In vitro antibacterial activity of Example 5 (MIC); assay type: cell-based
[10] = test system: Stenotrophomonas maltophilia; assay: In vitro antibacterial activity of Example 5 (MIC); assay type: cell-based
Clostridium perfringens = assay: microbe, parasite or virus in culture; assay type: cell-based
Finegoldia magna = assay: In vitro antibacterial activity of Example 5 against anaerobes (MIC, agar dilution); assay type: cell-based; conditions: ATCC53516; Finegoldia magna (ATCC 53516)
[11] = test system: Prevotella melaninogenica; assay: as above; assay type: cell-based
Bacillus subtilis = assay: In vitro antibacterial activity of Example 5 (MIC); assay type: cell-based; conditions: 11 strains of Bacillus subtilis
[12] = test system: 7 S. aureus strains and 1 strain of Streptococcus pyogenes; assay: Minimum bactericidal concentration (MBC); assay type: cell-based, Staphylococcus aureus; Streptococcus pyogenes; conditions: 7 S. aureus strains and 1 S. pyogenes strain
S. pyogenes ARC838 = assay: Emergence of resistance with serial passage; assay type: cell-based, Streptococcus pyogenes; conditions: after twenty passages with Example 5, S. pyogenes ARC838
[13] = test system: Staphylococcus aureus, Streptococcus pneumoniae, and S. pyogenes strains with characterized gyrase and topoisomerase mutations; assay type: cell-based; conditions: clinical isolates with mutations in gyrA, gyrB, ParC or ParE
Staphylococcus aureus [14] = assay: S. aureus neutropenic mouse thigh infection model, PK/PD; conditions: for AUC value for 1-log reduction / AUC value for stasis: ip, with ABT
[15] = S. aureus MRSA neutropenic dose response
[16] = S. aureus MRSA, neutropenic mouse thigh
[17] = S. aureus MSSA neutropenic dose response
[18] = S. aureus MSSA, neutropenic mouse thigh
[19] = S. aureus USA100, neutropenic mouse thigh
[20] = S. aureus USA100 neutropenic dose response
[21] = S. aureus USA300, neutropenic mouse thigh
[22] = S. aureus USA300 neutropenic dose response

For C[C@@H]1CN2c3c(cc4c(N5C(=O)OC[C@@H]5C)noc4c3F)CC3(C(=O)NC(=O)NC3=O)[C@H]2[C@H](C)O1 [Example 5, (2R,4S,4aS)-11-Fluoro-2,4-dimethyl-8-[(4S)-4-methyl-2-oxo-1,3-oxazolidin-3-yl]-1,2,4,4a-tetrahydro-2′H,6H-spiro[1,4-oxazino[4,3-a][1,2]oxazolo[4,5-g]quinoline-5,5′-pyrimidine]-2′,4′,6′(1′H,3′H)-trione], the MIC (Escherichia coli [1]) was 4 µM (≈ 1.95 µg/mL), the MIC (Haemophilus influenzae) was 0.33 µM (≈ 0.161 µg/mL) and the MIC (Pseudomonas aeruginosa [2]) was greater than 200 µM. The MIC (Burkholderia cepacia) was 64 µg/mL (≈ 131 µM), the MIC (Citrobacter freundii) was 16 µg/mL (≈ 32.8 µM) and the MIC (Citrobacter koseri) was 64 µg/mL (≈ 131 µM). The MIC (Enterobacter aerogenes) was 64 µg/mL (≈ 131 µM), the MIC (Escherichia coli [3]; ATCC25922, Escherichia coli (ATCC 25922 CLSI QC Strain)) was 2 µg/mL (≈ 4.1 µM) and the MIC (Escherichia coli [3]; ATCC25922, Escherichia coli (TolC- of ATCC 25922)) was less than 0.06 µg/mL. For the same compound, the MIC (Escherichia coli [3]; ATCC25922, Escherichia coli + 2%Human albumin (ATCC 25922)) was less than 0.06 µg/mL, the MIC (Escherichia coli [3]; ATCC35218, Escherichia coli (ATCC 35218 CLSI QC Strain)) was 4 µg/mL (≈ 8.21 µM) and the MIC (Escherichia coli [3]; Escherichia coli (K12(W3110))) was 2 µg/mL (≈ 4.1 µM). For the same compound, the MIC (Klebsiella oxytoca) was 32 µg/mL (≈ 65.6 µM), the MIC (Klebsiella pneumoniae; ATCC700603, Klebsiella pneumoniae (ATCC 700603 CLSI QC Strain)) was greater than 64 µg/mL and the MIC (Klebsiella pneumoniae; Klebsiella pneumoniae (In vivo strain)) was 16 µg/mL (≈ 32.8 µM). It also gave an MIC (Klebsiella pneumoniae; Klebsiella pneumoniae (isolates not further specified)) of 64 µg/mL (≈ 131 µM), an MIC (Proteus mirabilis) of 8 µg/mL (≈ 16.4 µM) and an MIC (Pseudomonas aeruginosa [4]; PAO1, Pseudomonas aeruginosa (PAO1)) greater than 64 µg/mL. It also gave an MIC (Pseudomonas aeruginosa [4]; PAO1, Pseudomonas aeruginosa (PAO1, mexABCDXY-)) of 2 µg/mL (≈ 4.1 µM), an MIC (Pseudomonas aeruginosa [4]; Pseudomonas aeruginosa (clinical isolate)) greater than 64 µg/mL and an MIC90 (Staphylococcus aureus [5]; 100 strains of S. aureus) of 0.25 µg/mL (≈ 0.513 µM). It also gave an MIC (Staphylococcus aureus [5]; ATCC29213, Staphylococcus aureus (ATCC 29213, CLSI QC Strain)) of 0.125 µg/mL (≈ 0.256 µM), an MIC (Staphylococcus aureus [5]; ATCC29213, Staphylococcus aureus + 2%Human albumin (ATCC 29213, CLSI QC Strain)) of 0.25 µg/mL and an MIC (Staphylococcus aureus [5]; MRSA / USA100, Staphylococcus aureus (MRSA, USA100)) of 0.125 µg/mL (≈ 0.256 µM). For the same compound, the MIC (Staphylococcus aureus [5]; MRSA, Staphylococcus aureus (MRSA)) was 0.5 µg/mL (≈ 1.03 µM), the MIC (Staphylococcus aureus [5]; MRSA, Staphylococcus aureus (MRSA, fluoroquinolone-R)) was 0.25 µg/mL (≈ 0.513 µM) and the MIC (Staphylococcus aureus [5]; MSSA, Staphylococcus aureus (MSSA, in vivo strain)) was 0.125 µg/mL (≈ 0.256 µM). It also gave an MIC (Staphylococcus aureus [5]; Staphylococcus aureus (In vivo Strain)) of 0.25 µg/mL (≈ 0.513 µM), an MIC (Staphylococcus aureus [5]; VISA, Staphylococcus aureus (Mu3, VISA)) of 0.25 µg/mL (≈ 0.513 µM) and an MIC ([6]; Staphylococcus epidermidis (MRSE)) of 0.25 µg/mL (≈ 0.513 µM). For the same compound, the MIC90 ([6]; Staphylococcus epidermidis, S. epidermidis, n=37) was 0.25 µg/mL (≈ 0.513 µM), the MIC [7] was 1 µg/mL (≈ 2.05 µM) and the MIC90 ([7]; S. lugdunensis, n=11) was 0.5 µg/mL (≈ 1.03 µM). The MIC [8] was 0.5 µg/mL (≈ 1.03 µM), the MIC90 ([8]; S. saprophyticus, n=16) was 0.5 µg/mL (≈ 1.03 µM) and the MIC (Streptococcus agalactiae) was 0.5 µg/mL (≈ 1.03 µM). The MIC90 (Streptococcus agalactiae; 100 strains of S. Agalactiae) was 0.25 µg/mL (≈ 0.513 µM), the MIC50 (Streptococcus agalactiae; 100 strains of S. Agalactiae, read-out: MIC50 (MICH [sic])) was 0.125 µg/mL (≈ 0.256 µM) and the MIC [9] was 0.03 µg/mL (≈ 0.0615 µM). It also gave an MIC [10] greater than 64 µg/mL, an MIC (Clostridium perfringens) of 0.5 µg/mL (≈ 1.03 µM) and an MIC (Finegoldia magna) of less than 0.03 µg/mL. The MIC [11] was 0.25 µg/mL (≈ 0.513 µM), the MIC90 (Bacillus subtilis) was 0.5 µg/mL (≈ 1.03 µM) and the “minimum bactericidal concentrations (MBCs) relative to the MIC” value [12] was no more than 2 fold. The “decrease in susceptibility over the starting culture” value (S. pyogenes ARC838) was 8 fold, the cross resistance [13] was “No cross resistance” and the “AUC/MIC (free), 1-log reduction ± SEM” value (Staphylococcus aureus [14]; [15]) was 96 ± 35. For the same compound, the “AUC/MIC (free), EC50 ± SEM” value (Staphylococcus aureus [14]; [15]) was 53 ± 25, the “AUC/MIC (free), Stasis ± SEM” value (Staphylococcus aureus [14]; [15]) was 43 ± 5 and the “AUC value for 1-log reduction” value (Staphylococcus aureus [14]; [16]) was 55 μg·h/mL. The “AUC value for stasis” value (Staphylococcus aureus [14]; [16]) was 24 µg·h/mL, the “AUC/MIC (free), 1-log reduction ± SEM” value (Staphylococcus aureus [14]; [17]) was 245 ± 81 and the “AUC/MIC (free), EC50 ± SEM” value (Staphylococcus aureus [14]; [17]) was 71 ± 28. For the same compound, the “AUC/MIC (free), Stasis ± SEM” value (Staphylococcus aureus [14]; [17]) was 98 ± 17, the “AUC value for 1-log reduction” value (Staphylococcus aureus [14]; [18]) was 69 μg·h/mL and the “AUC value for stasis” value (Staphylococcus aureus [14]; [18]) was 28 µg·h/mL. For the same compound, the “AUC value for 1-log reduction” value (Staphylococcus aureus [14]; [19]) was 47 μg·h/mL, the “AUC value for stasis” value (Staphylococcus aureus [14]; [19]) was 25 µg·h/mL and the “AUC/MIC (free), 1-log reduction ± SEM” value (Staphylococcus aureus [14]; [20]) was 83 ± 23. The “AUC/MIC (free), EC50 ± SEM” value (Staphylococcus aureus [14]; [20]) was 34 ± 14, the “AUC/MIC (free), Stasis ± SEM” value (Staphylococcus aureus [14]; [20]) was 43 ± 5 and the “AUC value for 1-log reduction” value (Staphylococcus aureus [14]; [21]) was 150 μg·h/mL. For the same compound, the “AUC value for stasis” value (Staphylococcus aureus [14]; [21]) was 91 µg·h/mL, the “AUC/MIC (free), 1-log reduction ± SEM” value (Staphylococcus aureus [14]; [22]) was 132 ± 16 and the “AUC/MIC (free), EC50 ± SEM” value (Staphylococcus aureus [14]; [22]) was 73 ± 38. For the same compound, the “AUC/MIC (free), Stasis ± SEM” value (Staphylococcus aureus [14]; [22]) was 80 ± 5.
